Laboratory results reported in PubChem BioAssay AID2060513 (Molecular Pharmacology Branch, DTP, NCI, 2025).

System: 299254-011-R-J1-PDC complex spheroids viability
Assay: Anticancer human tumor 299254-011-R-J1-PDC patient-derived melanoma cell line growth inhibition [GQUAD]
Conditions: for IC50: curve of first compound; for viability, T/C: stronger effect = lower value
Description: DNA G-quadruplex Stabilizer Agents in Combinations in Complex Spheroids
A high-throughput screen of multi-cell type tumor spheroids was designed to identify active combinations of DNA G-quadruplex stabilizer agents and targeted small molecules. Complex spheroids include a stromal component modeled by human endothelial cells (HUVEC) and fibroblasts modeled by human mesenchymal stem cells (MSCs). The concentration ranges selected for each drug and investigational agent were based upon clinically achievable concentrations if the clinical Cmax of the agent was known.
Compounds. The drugs and investigational agents: pidnarulex (CX-5461; NSC782164), APTO-253 (NSC789042), BRACO-19 (NSC847499), peposertib (NSC802822), ceralasertib (NSC780249), elimusertib (NSC800525), camonsertib (NSC841442), AZD-1390 (NSC803789), olaparib (NSC753686), talazoparib (NSC767125), ART-558 (NSC835418), sotorasib (NSC818433), MRTX-1133 (NSC836407), SN-38 (NSC673596), topotecan (NSC609699), etoposide (NSC141540), doxorubicin (NSC123127), gemcitabine (NSC613327), 5-fluorouracil (NSC19893), paclitaxel (NSC125973), vemurafenib (NSC761431), panobinostat (NSC761190), R-306465 (JNJ-16241199; NSC773264), adavosertib (NSC754352), TP-3654 (NSC805149), carboplatin (NSC241240), KSQ-4279 (NSC840948), and staurosporine (NSC755774) were obtained from the National Cancer Institute (NCI) Developmental Therapeutics Program Chemical Repository (34). The FDA-approved anticancer drug set is available from the NCI Developmental Therapeutics Program. […] The stock solutions were prepared in dimethyl sulfoxide (DMSO, Sigma-Aldrich, St. Louis, MO, cat. D2650) at 800-fold the tested concentration and stored at -70 degrees C prior to their use. All drugs and investigational agents were tested over a range starting from a high concentration at or near the clinical Cmax and decreasing in half-log increments. If the clinical Cmax for an agent had not been determined, the highest concentration tested was 10 microM.
2.3 Cell Culture. All cells were maintained in an incubator at 37 degrees C and 5% CO2 with 95% humidity. The PDC lines were cultured according to standard operating procedures established by the NCI PDMR. All PDCs were thawed and cultured in Matrigel-coated flasks prepared with a working solution of 1X Ham's F-12 nutrient mix, without supplementation (Invitrogen, cat. 11765054), 100 U/mL penicillin-streptomycin (Invitrogen, cat. 15140122), and 2.5% Matrigel (Corning Inc., cat. 354248) for the first three passages. The 857933-349-R-J2-PDC line was cultured in 6C/Colon 1B media, which includes advanced DMEM/F-12 (Thermo Fisher Scientific, cat. 12634028), 10 mM HEPES (Thermo Fisher Scientific, cat. 15630080), 1X GlutaMAX supplement (Thermo Fisher Scientific, cat. 35050061), 0.1 mg/mL primocin (InvivoGen, cat. ant-pm-2), 10% defined fetal bovine serum, heat inactivated (HyClone Laboratories Inc., cat. SH30070.03HI), 50% L-WRN conditioned media (ATCC, cat. CRL-3276), 1.25 mM N-Acetyl-L-cysteine (Sigma-Aldrich, cat. A9165), 10 mM nicotinamide (Sigma-Aldrich, cat. N0636), 1X B-27 supplement (Thermo Fisher Scientific, cat. 17504044), 1X N-2 supplement (Thermo Fisher Scientific, cat. 17502048), 10 microM Y-27632 dihydrochloride (Tocris Bioscience, cat. 1254), and 50 ng/mL human EGF recombinant protein (Thermo Fisher Scientific, cat. PHG0311). The 485176-168-R4-J1-PDC line was cultured in Panc media, which includes all 6C/Colon 1B media components plus 100 ng/mL human FGF-10 (Thermo Fisher Scientific, cat. 100-26), 500 nM SB-431542 (Selleckchem, cat. S1067), and gastrin (Tocris, cat. 3006).
[…]

[1] = second compound 0.0316 µM, first compound 0.0316 µM
[2] = second compound 0.0316 µM, first compound 0.1 µM
[3] = second compound 0.0316 µM, first compound 0.316 µM
[4] = second compound 0.0316 µM, first compound 1 µM
[5] = second compound 0.0316 µM, first compound 3.16 µM
[6] = second compound 0.0316 µM, first compound 10 µM
[7] = second compound 0.1 µM, first compound 0.0316 µM
[8] = second compound 0.1 µM, first compound 0.1 µM
[9] = second compound 0.1 µM, first compound 0.316 µM
[10] = second compound 0.1 µM, first compound 1 µM
[11] = second compound 0.1 µM, first compound 3.16 µM
[12] = second compound 0.1 µM, first compound 10 µM
[13] = second compound 0.316 µM, first compound 0.0316 µM
[14] = second compound 0.316 µM, first compound 0.1 µM
[15] = second compound 0.316 µM, first compound 0.316 µM
[16] = second compound 0.316 µM, first compound 1 µM
[17] = second compound 0.316 µM, first compound 3.16 µM
[18] = second compound 0.316 µM, first compound 10 µM
[19] = second compound 1 µM, first compound 0.0316 µM
[20] = second compound 1 µM, first compound 0.1 µM
[21] = second compound 1 µM, first compound 0.316 µM
[22] = second compound 1 µM, first compound 1 µM
[23] = second compound 1 µM, first compound 3.16 µM
[24] = second compound 1 µM, first compound 10 µM
[25] = second compound 3.16 µM, first compound 0.0316 µM
[26] = second compound 3.16 µM, first compound 0.1 µM
[27] = second compound 3.16 µM, first compound 0.316 µM
[28] = second compound 3.16 µM, first compound 1 µM
[29] = second compound 3.16 µM, first compound 3.16 µM
[30] = second compound 3.16 µM, first compound 10 µM
[31] = second compound 10 µM, first compound 0.0316 µM
[32] = second compound 10 µM, first compound 0.1 µM
[33] = second compound 10 µM, first compound 0.316 µM
[34] = second compound 10 µM, first compound 1 µM
[35] = second compound 10 µM, first compound 3.16 µM
[36] = second compound 10 µM, first compound 10 µM
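Further: spheroids exposed to the agents for seven days before readout.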
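Wherever viability, T/C is given: percent viability relative to DMSO vehicle control wells = 100%.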

## O=c1[nH]cc(F)c(=O)[nH]1 + CN(C)c1ccc(Nc2c3ccc(NC(=O)CCN4CCCC4)cc3nc3cc(NC(=O)CCN4CCCC4)ccc23)cc1
Second compound 0.0316 µM
  IC50: > 10 µM
Second compound 0.1 µM
  IC50: > 10 µM
Second compound 0.316 µM
  IC50: > 10 µM
Second compound 1 µM
  IC50: > 10 µM
Second compound 3.16 µM
  IC50: > 10 µM
Second compound 10 µM
  IC50: > 10 µM
[1]
  viability, T/C: 93.3%
[2]
  viability, T/C: 106%
[3]
  viability, T/C: 105%
[4]
  viability, T/C: 104%
[5]
  viability, T/C: 110%
[6]
  viability, T/C: 82.9%
[7]
  viability, T/C: 79.3%
[8]
  viability, T/C: 91.4%
[9]
  viability, T/C: 90.7%
[10]
  viability, T/C: 92.2%
[11]
  viability, T/C: 86.7%
[12]
  viability, T/C: 91.5%
[13]
  viability, T/C: 89.2%
[14]
  viability, T/C: 106%
[15]
  viability, T/C: 80.2%
[16]
  viability, T/C: 93.3%
[17]
  viability, T/C: 104%
[18]
  viability, T/C: 82.6%
[19]
  viability, T/C: 106%
[20]
  viability, T/C: 91.3%
[21]
  viability, T/C: 93.3%
[22]
  viability, T/C: 84.6%
[23]
  viability, T/C: 103%
[24]
  viability, T/C: 101%
[25]
  viability, T/C: 82.7%
[26]
  viability, T/C: 103%
[27]
  viability, T/C: 112%
[28]
  viability, T/C: 95.1%
[29]
  viability, T/C: 115%
[30]
  viability, T/C: 106%
[31]
  viability, T/C: 91.3%
[32]
  viability, T/C: 96.8%
[33]
  viability, T/C: 98.4%
[34]
  viability, T/C: 94.7%
[35]
  viability, T/C: 90.9%
[36]
  viability, T/C: 96.3%

## O=C(c1cc(Cc2n[nH]c(=O)c3ccccc23)ccc1F)N1CCN(C(=O)C2CC2)CC1 + CN(C)c1ccc(Nc2c3ccc(NC(=O)CCN4CCCC4)cc3nc3cc(NC(=O)CCN4CCCC4)ccc23)cc1
Second compound 0.0316 µM
  IC50: > 10 µM
Second compound 0.1 µM
  IC50: > 10 µM
Second compound 0.316 µM
  IC50: > 10 µM
Second compound 1 µM
  IC50: > 10 µM
Second compound 3.16 µM
  IC50: > 10 µM
Second compound 10 µM
  IC50: > 10 µM
[1]
  viability, T/C: 81.9%
[2]
  viability, T/C: 88.2%
[3]
  viability, T/C: 94%
[4]
  viability, T/C: 92.7%
[5]
  viability, T/C: 89.4%
[6]
  viability, T/C: 78.1%
[7]
  viability, T/C: 78.9%
[8]
  viability, T/C: 78.1%
[9]
  viability, T/C: 85.4%
[10]
  viability, T/C: 96.8%
[11]
  viability, T/C: 90.7%
[12]
  viability, T/C: 80.9%
[13]
  viability, T/C: 95.6%
[14]
  viability, T/C: 89.1%
[15]
  viability, T/C: 87.5%
[16]
  viability, T/C: 82.8%
[17]
  viability, T/C: 96.1%
[18]
  viability, T/C: 85.5%
[19]
  viability, T/C: 87.9%
[20]
  viability, T/C: 95.2%
[21]
  viability, T/C: 96%
[22]
  viability, T/C: 101%
[23]
  viability, T/C: 106%
[24]
  viability, T/C: 80.2%
[25]
  viability, T/C: 79.7%
[26]
  viability, T/C: 86.9%
[27]
  viability, T/C: 99.9%
[28]
  viability, T/C: 91.1%
[29]
  viability, T/C: 95.8%
[30]
  viability, T/C: 68.1%
[31]
  viability, T/C: 96.2%
[32]
  viability, T/C: 92.3%
[33]
  viability, T/C: 82.8%
[34]
  viability, T/C: 89.2%
[35]
  viability, T/C: 87.6%
[36]
  viability, T/C: 95%

## C#Cc1c(F)ccc2cc(O)cc(-c3ncc4c(N5CC6CCC(C5)N6)nc(OCC56CCCN5CC(F)C6)nc4c3F)c12 (stereo unspecified) + Cc1[nH]c2ccc(F)cc2c1-c1nc2c3cccnc3c3ncccc3c2[nH]1
Second compound 0.0316 µM
  IC50: > 10 µM
Second compound 0.1 µM
  IC50: > 10 µM
Second compound 0.316 µM
  IC50: > 10 µM
Second compound 1 µM
  IC50: > 10 µM
Second compound 3.16 µM
  IC50: > 10 µM
Second compound 10 µM
  IC50: > 10 µM
[1]
  viability, T/C: 109%
[2]
  viability, T/C: 102%
[3]
  viability, T/C: 87.9%
[4]
  viability, T/C: 102%
[5]
  viability, T/C: 90.8%
[6]
  viability, T/C: 72.5%
[7]
  viability, T/C: 83.1%
[8]
  viability, T/C: 103%
[9]
  viability, T/C: 103%
[10]
  viability, T/C: 100%
[11]
  viability, T/C: 103%
[12]
  viability, T/C: 72.9%
[13]
  viability, T/C: 89.4%
[14]
  viability, T/C: 102%
[15]
  viability, T/C: 88.8%
[16]
  viability, T/C: 86.6%
[17]
  viability, T/C: 111%
[18]
  viability, T/C: 75.7%
[19]
  viability, T/C: 129%
[20]
  viability, T/C: 95.2%
[21]
  viability, T/C: 116%
[22]
  viability, T/C: 104%
[23]
  viability, T/C: 86.6%
[24]
  viability, T/C: 80.8%
[25]
  viability, T/C: 102%
[26]
  viability, T/C: 112%
[27]
  viability, T/C: 97.2%
[28]
  viability, T/C: 88.9%
[29]
  viability, T/C: 114%
[30]
  viability, T/C: 91.7%
[31]
  viability, T/C: 87.2%
[32]
  viability, T/C: 100%
[33]
  viability, T/C: 98.4%
[34]
  viability, T/C: 99.1%
[35]
  viability, T/C: 105%
[36]
  viability, T/C: 95.6%
